The target in test [1] is T1, Aurora kinase C (Homo sapiens) (UniProt Q9UQB9).
T1 sequence (whole entry): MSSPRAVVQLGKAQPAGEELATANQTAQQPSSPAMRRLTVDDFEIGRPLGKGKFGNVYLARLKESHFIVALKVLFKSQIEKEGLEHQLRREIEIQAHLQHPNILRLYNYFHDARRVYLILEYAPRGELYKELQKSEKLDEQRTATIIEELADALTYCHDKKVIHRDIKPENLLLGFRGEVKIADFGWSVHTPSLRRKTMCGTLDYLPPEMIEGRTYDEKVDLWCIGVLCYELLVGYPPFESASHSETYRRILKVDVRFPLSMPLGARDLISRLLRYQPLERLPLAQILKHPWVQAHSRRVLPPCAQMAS
Kind of test: Selectivity interaction (Ambit KINOMEscan and KiNATiv profiling in Jurkat cells) EUB0000090b AURKC. In kind it is cell-based. To be noted: at 1 µM.

The target in test [2] is Serine/threonine-protein kinase 35 (Homo sapiens) (UniProt Q8TDR2). Kind of test: Selectivity interaction (KinomeScan (DiscoverX)) EUB0001079a STK35. The following applies: at 1 µM.
Serine/threonine-protein kinase 35 (Homo sapiens), sequence (Q8TDR2 whole entry): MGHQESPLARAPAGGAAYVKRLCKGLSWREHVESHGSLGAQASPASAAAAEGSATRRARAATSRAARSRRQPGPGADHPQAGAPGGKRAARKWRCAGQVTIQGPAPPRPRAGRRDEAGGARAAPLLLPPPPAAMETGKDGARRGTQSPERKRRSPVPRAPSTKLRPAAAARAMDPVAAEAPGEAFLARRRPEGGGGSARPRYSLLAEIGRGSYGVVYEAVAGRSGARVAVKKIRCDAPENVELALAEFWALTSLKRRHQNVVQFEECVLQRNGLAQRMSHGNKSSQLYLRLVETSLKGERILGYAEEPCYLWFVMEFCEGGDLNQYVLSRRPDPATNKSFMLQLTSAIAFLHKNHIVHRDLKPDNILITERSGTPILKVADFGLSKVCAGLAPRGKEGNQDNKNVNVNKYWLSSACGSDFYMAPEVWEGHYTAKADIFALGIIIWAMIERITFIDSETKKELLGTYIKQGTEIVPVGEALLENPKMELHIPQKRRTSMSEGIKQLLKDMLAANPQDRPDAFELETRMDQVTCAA
Test [3] addresses T2, Serine/threonine-protein kinase TAO2 (Homo sapiens) (UniProt Q9UL54).
T2 sequence (whole entry): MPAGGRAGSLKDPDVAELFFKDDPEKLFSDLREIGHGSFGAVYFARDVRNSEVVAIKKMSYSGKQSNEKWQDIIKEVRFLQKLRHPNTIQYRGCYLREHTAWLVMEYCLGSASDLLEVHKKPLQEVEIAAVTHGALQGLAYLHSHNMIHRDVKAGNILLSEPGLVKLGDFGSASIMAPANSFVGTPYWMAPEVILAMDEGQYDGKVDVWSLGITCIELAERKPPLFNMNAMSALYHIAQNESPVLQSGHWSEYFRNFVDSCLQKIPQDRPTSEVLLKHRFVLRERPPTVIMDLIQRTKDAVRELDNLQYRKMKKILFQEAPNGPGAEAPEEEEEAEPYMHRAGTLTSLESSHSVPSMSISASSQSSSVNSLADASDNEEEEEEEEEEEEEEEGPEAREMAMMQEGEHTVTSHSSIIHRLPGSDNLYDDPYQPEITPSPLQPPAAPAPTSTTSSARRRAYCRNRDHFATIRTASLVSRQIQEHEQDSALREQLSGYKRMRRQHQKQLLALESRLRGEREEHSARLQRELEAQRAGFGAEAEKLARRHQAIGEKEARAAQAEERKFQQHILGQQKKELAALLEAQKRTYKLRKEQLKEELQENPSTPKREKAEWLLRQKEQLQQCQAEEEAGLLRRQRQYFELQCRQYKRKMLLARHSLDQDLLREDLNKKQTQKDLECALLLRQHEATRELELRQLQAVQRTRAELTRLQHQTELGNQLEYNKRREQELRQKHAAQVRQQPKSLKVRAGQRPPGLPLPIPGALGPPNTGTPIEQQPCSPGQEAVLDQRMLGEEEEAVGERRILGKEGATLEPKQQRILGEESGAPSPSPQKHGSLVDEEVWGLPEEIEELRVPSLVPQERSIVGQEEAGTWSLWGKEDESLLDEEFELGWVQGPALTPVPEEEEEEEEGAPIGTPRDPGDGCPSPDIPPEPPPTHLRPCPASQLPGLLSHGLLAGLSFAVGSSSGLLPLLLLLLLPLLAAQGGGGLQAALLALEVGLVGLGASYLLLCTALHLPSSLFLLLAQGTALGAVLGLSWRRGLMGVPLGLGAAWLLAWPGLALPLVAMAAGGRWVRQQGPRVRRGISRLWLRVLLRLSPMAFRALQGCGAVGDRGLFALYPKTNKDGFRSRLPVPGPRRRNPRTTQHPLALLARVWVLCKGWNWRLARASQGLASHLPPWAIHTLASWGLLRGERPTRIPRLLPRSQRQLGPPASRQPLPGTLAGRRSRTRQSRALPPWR
Put plainly: Selectivity interaction (KinomeScan (DiscoverX)) EUB0000092b TAOK2. The following applies: at 10 µM.

The target in test [4] is T3, Ephrin type-B receptor 2 (Homo sapiens) (UniProt P29323).
T3 sequence (whole entry): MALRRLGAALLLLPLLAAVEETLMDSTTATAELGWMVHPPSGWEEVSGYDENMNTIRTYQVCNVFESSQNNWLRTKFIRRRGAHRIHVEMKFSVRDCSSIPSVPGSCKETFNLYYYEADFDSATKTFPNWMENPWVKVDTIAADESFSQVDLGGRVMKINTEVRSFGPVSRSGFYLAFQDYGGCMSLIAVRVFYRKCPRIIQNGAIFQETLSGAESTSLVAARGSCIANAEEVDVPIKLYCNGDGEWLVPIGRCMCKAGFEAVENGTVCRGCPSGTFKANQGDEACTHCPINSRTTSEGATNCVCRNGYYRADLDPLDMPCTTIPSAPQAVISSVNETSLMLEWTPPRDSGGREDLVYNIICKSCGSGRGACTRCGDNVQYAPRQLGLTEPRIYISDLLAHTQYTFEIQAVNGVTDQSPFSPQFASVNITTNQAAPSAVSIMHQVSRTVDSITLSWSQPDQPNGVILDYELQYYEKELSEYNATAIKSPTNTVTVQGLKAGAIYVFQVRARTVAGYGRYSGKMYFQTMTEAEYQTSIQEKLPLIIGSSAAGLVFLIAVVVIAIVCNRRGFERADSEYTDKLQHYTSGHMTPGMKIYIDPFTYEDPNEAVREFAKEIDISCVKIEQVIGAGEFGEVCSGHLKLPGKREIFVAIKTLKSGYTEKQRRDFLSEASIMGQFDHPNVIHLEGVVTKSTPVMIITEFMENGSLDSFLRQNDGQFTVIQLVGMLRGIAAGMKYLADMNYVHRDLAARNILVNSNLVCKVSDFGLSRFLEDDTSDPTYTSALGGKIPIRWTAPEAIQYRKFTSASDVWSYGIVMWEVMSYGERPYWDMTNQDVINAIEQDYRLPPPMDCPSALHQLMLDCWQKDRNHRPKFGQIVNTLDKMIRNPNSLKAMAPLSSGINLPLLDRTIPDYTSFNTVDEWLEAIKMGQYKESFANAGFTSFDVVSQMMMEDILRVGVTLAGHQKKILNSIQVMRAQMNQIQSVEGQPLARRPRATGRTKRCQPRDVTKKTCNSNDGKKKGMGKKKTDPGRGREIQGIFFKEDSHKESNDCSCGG
Kind of test: Selectivity interaction (KinomeScan (DiscoverX)) EUB0000607a EPHB2. To be noted: at 10 µM.

Test [5] deals with Serine/threonine-protein kinase WNK1 (Homo sapiens) (UniProt Q9H4A3). Put plainly: Selectivity interaction (ActivX KiNativ screen (kinase selectivity in THP-1 cell lysates)) EUB0000639a WNK1. In kind it is subcellular. The following applies: lysate, at 0.01 µM.
Serine/threonine-protein kinase WNK1 (Homo sapiens), sequence (Q9H4A3 whole entry, looked up): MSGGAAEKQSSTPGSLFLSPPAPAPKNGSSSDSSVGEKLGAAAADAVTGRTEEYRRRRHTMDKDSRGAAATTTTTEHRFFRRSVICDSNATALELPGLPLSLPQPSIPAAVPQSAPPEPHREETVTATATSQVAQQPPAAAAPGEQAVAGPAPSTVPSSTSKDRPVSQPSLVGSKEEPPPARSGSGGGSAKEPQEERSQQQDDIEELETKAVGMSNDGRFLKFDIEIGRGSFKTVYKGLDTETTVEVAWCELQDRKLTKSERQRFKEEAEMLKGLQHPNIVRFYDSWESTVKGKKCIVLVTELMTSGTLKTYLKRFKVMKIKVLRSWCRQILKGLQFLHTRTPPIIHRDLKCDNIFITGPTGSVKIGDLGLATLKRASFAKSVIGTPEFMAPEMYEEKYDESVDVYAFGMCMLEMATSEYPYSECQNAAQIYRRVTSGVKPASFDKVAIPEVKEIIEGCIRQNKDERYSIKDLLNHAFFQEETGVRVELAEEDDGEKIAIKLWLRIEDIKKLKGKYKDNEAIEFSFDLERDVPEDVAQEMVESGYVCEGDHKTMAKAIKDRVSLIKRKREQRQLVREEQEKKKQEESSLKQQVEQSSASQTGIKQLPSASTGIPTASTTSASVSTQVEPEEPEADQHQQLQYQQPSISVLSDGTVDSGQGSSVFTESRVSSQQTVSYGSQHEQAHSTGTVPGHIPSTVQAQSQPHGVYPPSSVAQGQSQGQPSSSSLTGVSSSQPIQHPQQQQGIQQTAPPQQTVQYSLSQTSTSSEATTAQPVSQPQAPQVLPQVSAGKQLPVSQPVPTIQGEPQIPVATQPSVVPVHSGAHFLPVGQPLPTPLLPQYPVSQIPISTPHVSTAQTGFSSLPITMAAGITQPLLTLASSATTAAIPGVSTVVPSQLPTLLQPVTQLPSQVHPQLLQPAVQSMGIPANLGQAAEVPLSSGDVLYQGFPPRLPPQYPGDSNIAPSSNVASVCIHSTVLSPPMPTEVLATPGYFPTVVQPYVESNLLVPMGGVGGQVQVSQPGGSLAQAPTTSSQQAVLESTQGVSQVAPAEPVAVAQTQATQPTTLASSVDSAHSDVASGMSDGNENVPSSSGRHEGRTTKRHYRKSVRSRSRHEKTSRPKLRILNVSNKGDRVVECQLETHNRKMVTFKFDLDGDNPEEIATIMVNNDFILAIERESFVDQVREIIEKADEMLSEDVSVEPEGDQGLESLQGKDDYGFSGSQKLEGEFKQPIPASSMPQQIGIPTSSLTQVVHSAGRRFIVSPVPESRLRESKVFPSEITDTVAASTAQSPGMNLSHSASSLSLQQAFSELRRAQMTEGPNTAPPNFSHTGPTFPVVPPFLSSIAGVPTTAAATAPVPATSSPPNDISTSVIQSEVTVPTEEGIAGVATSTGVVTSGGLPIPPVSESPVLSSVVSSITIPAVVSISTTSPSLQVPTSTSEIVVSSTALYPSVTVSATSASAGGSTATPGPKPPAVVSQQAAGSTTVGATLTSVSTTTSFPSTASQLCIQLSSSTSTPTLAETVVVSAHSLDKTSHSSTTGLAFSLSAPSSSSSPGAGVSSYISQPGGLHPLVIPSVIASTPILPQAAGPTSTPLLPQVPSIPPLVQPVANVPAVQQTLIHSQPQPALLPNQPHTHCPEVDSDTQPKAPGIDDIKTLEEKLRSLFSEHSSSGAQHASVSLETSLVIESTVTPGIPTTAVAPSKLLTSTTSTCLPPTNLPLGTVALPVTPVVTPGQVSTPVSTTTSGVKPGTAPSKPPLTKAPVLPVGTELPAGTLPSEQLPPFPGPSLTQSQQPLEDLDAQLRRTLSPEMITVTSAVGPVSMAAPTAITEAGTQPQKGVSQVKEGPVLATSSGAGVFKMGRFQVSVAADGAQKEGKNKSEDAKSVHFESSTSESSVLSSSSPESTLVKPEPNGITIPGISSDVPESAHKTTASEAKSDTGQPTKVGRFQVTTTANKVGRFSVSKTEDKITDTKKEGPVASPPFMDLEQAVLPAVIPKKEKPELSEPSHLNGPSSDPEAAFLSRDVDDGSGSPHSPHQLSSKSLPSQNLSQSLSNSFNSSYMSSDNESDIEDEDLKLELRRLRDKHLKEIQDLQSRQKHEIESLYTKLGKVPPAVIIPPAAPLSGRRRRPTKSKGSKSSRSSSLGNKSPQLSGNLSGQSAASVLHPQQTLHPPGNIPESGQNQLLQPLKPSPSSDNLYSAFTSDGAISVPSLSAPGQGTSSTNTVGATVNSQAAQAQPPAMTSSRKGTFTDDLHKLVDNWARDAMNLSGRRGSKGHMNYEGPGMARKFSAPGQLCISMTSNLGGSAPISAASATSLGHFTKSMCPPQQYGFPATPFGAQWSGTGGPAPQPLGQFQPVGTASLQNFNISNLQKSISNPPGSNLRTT

On to `CN(C)C/C=C/C(=O)Nc1ccc(C(=O)N2CCCC(Nc3ncc(Cl)c(-c4c[nH]c5ccccc45)n3)C2)cc1` (stereo not given), for which the % of control in test [1] came to 100%.

On to `Nc1cnc(N2CCc3cc(S(=O)(=O)Nc4c(F)cc(Cl)cc4F)cc(N4CCCC4=O)c32)nc1` [TP-020n], for which the % of control in test [2] was 100%.

In turn, `CCC(=O)N1CCN(c2ccc(-n3c(=O)ccc4cnc5ccc(-c6cnc7ccccc7c6)cc5c43)cc2C(F)(F)F)CC1` came in with a % of control in test [3] of 84%.

In test [4], `CNC(=O)Nc1ccc(-c2nc(N3CC4CCC(C3)O4)c3cnn(C4CCC5(CC4)OCCO5)c3n2)cc1` came in with a % of control of 78%.

The molecule `CC[C@@H]1[C@H](F)C(=O)N[C@@H]1COc1nccc2cc(C(N)=O)c(OC)cc12` [ZIMLOVISERTIB] came in with a % of inhibition in test [5] of 3.3%.

The record behind these values is ChEMBL document CHEMBL5465560, “Selectivity Literature for EUbOPEN Chemogenomic Library” (2024).
